Test results published in patent publication US20110034426A1, “Method of Preventing Renal Disease and Treating Symptoms Thereof” (WISCONSIN ALUMNI RESEARCH FOUNDATION, priority 2009, published 2011).
“Also recorded” adds a separate entry of the source.

Columns and labels:
MRL/MpJ-Fas^lpr/J mice [1] = experiment: Proteinuria in MRL/lpr mouse model of systemic lupus erythematosus / lupus nephritis; format: in vivo
Procedure: (§1) Mice. […] Water was given ad libitum.
(§2) Proteinuria measurements. Proteinuria measurements were performed by putting gentle pressure on the bladder for spot urine analysis on a clean surface with a semi-quantitative dipstick (Combistix, Bayer). Mice were determined to have proteinuria when urinary protein output was 100 mg/dL or more. Urine was collected by placing the animals in metabolic cages and performing two-24 hr collections. Total protein was measured using a Bradford assay. (MM Bradford, Analytical Biochemistry 72: 248-254, 1976).

NOD mice = experiment: NOD Mouse Model of Type I Diabetic Nephropathy; format: in vivo; conditions: 2MD in the diet
Procedure: as §2
Disease Induction. NOD mice (breeder pairs) were obtained from JAX laboratories (Bar Harbor, Me.). Weanling mice were placed on chow diet (5K52 Lab Diets) or purified diet (Suda et al., Purified Rodent Diet-Diet 11) and allowed to spontaneously develop diabetes (two consecutive measurements of plasma glucose >[…]). Water and diet were provided ad libitum.
Animal Husbandry. Animals were housed in autoclaved, plastic shoe-box style cages with corn cob bedding in groups of 2-4 animals/cage. Once mice were confirmed diabetic, the cages were changed daily. The animal rooms were maintained at a temperature of 68 to 72° F. and a relative humidity of 25 to 75%. […]
Treatment Groups. […] Once animals were determined to be diabetic, animals were assigned to treatment groups (6-12/group) so that each group would have the same average plasma glucose level at enrollment. […]

[2] = Serum calcium in treated MRL/lpr mice
Procedure: Mice. All mice used in this study were female MRL/MpJ-Fas^lpr/J mice either purchased directly or originally purchased from The Jackson Laboratory and bred in house. All mice involved in each study were age matched to the week of birth. All animal handling was performed according to protocol A1205 approved by the University of Wisconsin—Madison Institutional Animal Care and Use Committee. From weaning, female mice were placed on purified diet containing 0.47% calcium without 2MD until treatment initiation. The purified powder diet was prepared in agar form and administered 3 times a week. 2MD was administered through diet based on 5 g daily diet consumption per mouse. Water was given ad libitum. Blood was taken via retro-orbital bleeding method under isoflurane anesthetic. Serum was isolated from blood samples, frozen and subsequently analyzed with a benchtop clinical chemistry analyzer (Pentra 400, Horiba ABX).

MRL/MpJ-Fas^lpr/J mice [3] = experiment: Splenomegaly (spleen mass and histology) in MRL/lpr mice; format: in vivo
Text: as §1

MRL/MpJ-Fas^lpr/J mice [4] = experiment: Kidney and heart histology in MRL/lpr mice; format: in vivo
Procedure: as §1
Histology. Half of a kidney was preserved in cold zinc formalin fixative, embedded in paraffin, and sectioned 4 μm thick. Hematoxylin and eosin (H&E) and Masson-Goldner's trichrome were used to study histological differences between kidney samples. Von Kossa staining was performed on whole heart sections (processed as described above) to determine heart calcification. Sectioning and staining was performed by the University of Wisconsin—Madison McArdle Histology Laboratory. Micrographs in the figures were taken by an Olympus BH-2 microscope and Nikon Coolpix 990 digital camera.

[5] = tested on: ⅚ths Nephrectomy Rat Model; experiment: ⅚ths Nephrectomy Rat Model (uremic rat); format: in vivo, Sprague-Dawley rats; conditions: uremic rats
Text: ⅚ths Nephrectomy Rat Model. Disease Induction. Weanling, male Sprague-Dawley rats were obtained from Harlan (Madison, Wis.). Following a 10-13 day acclimation period, the animals had two-thirds of one kidney removed. After a week, the other entire kidney was removed. The animals were then switched from a chow diet to a purified rodent diet (Suda et al., Purified Rodent Diet-Diet 11) containing 0.6% Ca and 0.9% phosphorus and fat soluble vitamins A, D, E and K. Water and diet were provided ad libitum.
Animal Husbandry. Animals were housed in suspended, plastic shoe-box style cages with corn cob bedding (prior to surgery) or in stainless steel, wire-bottom cages (approximately one week after surgery). The animal rooms were maintained at a temperature of 68 to 72° F. and a relative humidity of 25 to 75%. The holding rooms were set to provide 12 hours of light per day.
Treatment Groups. Approximately four weeks after the second surgery, animals were assigned to treatment groups (14-15 animals/group) so that each group had the same average PTH level.
Dose Preparation (Vehicle Formulation). The negative control material was prepared by volumetrically measuring ethanol (5%) and Neobee oil, mixing and then placing in storage at 2 to 8° C.
Dose Preparation (2MD Formulation). 2MD formulations (DP001, Sigma Aldrich Fine Chemicals, Madison, Wis.) were prepared by first determining the concentration of an ethanol stock solution using UV spectrophotometry (extinction coefficient=42,000; max=252 nm). The solutions were then volumetrically added to Neobee oil so that there was no more than 5% ethanol in the final solution. If necessary, additional ethanol was added to bring the final ethanol amount to 5%. The solution was mixed and stored at 2 to 8° C.
Dose Administration Method. Both vehicle and 2MD were administered orally to the back of the tongue at 0.5 ml/kg body weight once daily for 8 weeks.
Serum Parathyroid Hormone (PTH) Levels. By “serum PTH levels” we mean the amount of PTH released by the parathyroid gland. PTH is the most important regulator of the body's calcium and phosphorus levels, and is controlled by the level of calcium in the blood. Low blood calcium levels cause increased PTH to be released, while high blood calcium levels inhibit PTH release. Normal values are 10-55 picograms per milliliter (pg/mL). Four weeks after surgery and 4 and 8 weeks after treatment initiation, blood was collected from the tail artery and the concentration of bioactive serum PTH was measured using the rat BioActive Intact PTH ELISA Kit from Immutopics, Inc. (San Clemente, Calif.).
Serum Calcium Analysis. Four weeks following surgery and 4 and 8 weeks after treatment started, blood was collected from the tail artery of each experimental animal. The blood was allowed to coagulate at room temperature and then centrifuged at 3000×g for 15 minutes. The serum was transferred to a polypropylene tube and stored frozen at −20° C. The level of calcium was determined by diluting the serum into 0.1% lanthum chloride and measuring the absorbance on an atomic absorption spectrophotometer (Perkin Elmer Model 3110, Shelton, Conn.).
Phosphorus Assay. Four weeks after surgery and 8 weeks after treatment started, blood was collected from the tail artery of each experimental animal. The blood was allowed to coagulate at room temperature and then centrifuged at 3000×g for 15 minutes. The serum was transferred to a polypropylene tube and stored frozen at −20° C. The level of phosphorus was determined using a clinical analyzer (Pentra 400, Horiba ABX Diagnostics—France; UV method using phosphomolybdate).
Creatinine Assay. Measuring serum creatinine levels is a useful and inexpensive method of evaluating renal dysfunction. Creatinine is a non-protein waste product of […] metabolism by skeletal muscle tissue. Creatinine production is continuous and is proportional to muscle mass. […]

[6] = Growth, body weight and clinical signs in treated MRL/lpr mice; format: in vivo
Text: as §1

MRL/MpJ-Fas^lpr/J mice [7] = conditions: 300 ng per day 1,25(OH)2D3 in diet, earlier thesis work (Kim 2009); cited from earlier work
[8] = daily oral 2MD for 8 weeks vs vehicle
[9] = daily oral 2MD vs vehicle, six weeks after treatment initiation

For `C=C1[C@H](O)CC(=C/C=C2\CCC[C@@]3(C)C2CCC3[C@@H](C)CCCC(C)(C)O)C[C@H]1O` (stereo partly drawn) [2MD, 2-methylene-19-nor-(20S)-1α,25-(OH)2D3], the “reduction in proteinuria incidence” value (MRL/MpJ-Fas^lpr/J mice [1]; 1 ng 2MD per mouse per day in diet, MRL/lpr mice) was over 60%, the “mean time of onset of proteinuria” value (MRL/MpJ-Fas^lpr/J mice [1]; 1 ng 2MD, MRL/lpr mice) was “delayed mean time of onset of proteinuria” and the “proteinuria (terminal incidence)” value (MRL/MpJ-Fas^lpr/J mice [1]; 5 ng 2MD/mouse/day in diet, MRL/lpr mice, treatment week 10 to 19) was “completely preventing proteinuria; also recorded: completely prevented; also recorded: sufficient to prevent proteinuria”. For the same compound, the “overall urine volume output” value (NOD mice) was “reduced; also recorded: marked improvement”, the “total urinary protein excretion” value (NOD mice) was “reduced; also recorded: marked improvement” and the serum calcium levels ([2]; 1 ng 2MD, MRL/lpr mice, throughout the study) was “within the physiologically normal range”. For the same compound, the serum calcium levels ([2]; 5 ng 2MD per mouse per day, MRL/lpr mice) was “without dramatically increasing”, the “serum calcium, highest measured point” value ([2]; 5 ng 2MD, MRL/lpr mice) was 12.4 mg/dL and the “serum calcium at study termination” value ([2]; 5 ng 2MD, MRL/lpr mice, week 19) was 10.9 mg/dL. The serum calcium levels ([2]; 2MD treatment (0.5, 1, 5 ng), week 10 to 19, MRL/lpr mice) was “mildly elevated”, the “spleen histology (white pulp structure)” value (MRL/MpJ-Fas^lpr/J mice [3]; 5 ng 2MD) was “helps retain the sheath-like structure; also recorded: retains some of the sheath structure” and the “splenomegaly / spleen weight (also normalized to body weight)” value (MRL/MpJ-Fas^lpr/J mice [3]; 5 ng 2MD vs 0 ng control, p<0.05) was “significantly reduced splenomegaly; also recorded: significantly decreased”. For the same compound, the perivascular infiltration (MRL/MpJ-Fas^lpr/J mice [4]; 5 ng 2MD vs control) was “slight decrease; also recorded: noticeably decreased”, the “tubulointerstitial infiltration of leukocytes” value (MRL/MpJ-Fas^lpr/J mice [4]; 5 ng 2MD vs control) was “noticeable decrease; also recorded: substantially less” and the “glomerular damage (sclerosis, fibrosis, basement membrane thickening, mesangial proliferation)” value (MRL/MpJ-Fas^lpr/J mice [4]; 5 ng 2MD vs control, kidney histology) was “prevented”. The “interstitial fibrosis (fibrotic staining)” value (MRL/MpJ-Fas^lpr/J mice [4]; 5 ng 2MD vs control, trichrome stain) was “significantly less; also recorded: the extent and frequency was much less”, the “calcification in kidneys and hearts” value (MRL/MpJ-Fas^lpr/J mice [4]; 2MD treated MRL/lpr mice) was “lack of evidence of calcification; also recorded: absence of calcification artifacts” and the “all markers of kidney failure” value ([5]; 2MD treatment) was “improved”. For the same compound, the serum creatinine [5, 8] was “lower levels”, the serum phosphorus [5, 8] was “lower levels” and the urinary protein excretion [5, 9] was “lower levels”. The urinary volume [5, 9] was “lower levels”, the “bone mineral density (total body BMD)” value ([5]; daily oral 2MD) was “improved bone mineral densities; also recorded: increased bone mineral density” and the overall survival ([5]; daily oral 2MD) was “increased overall survival”. The “serum PTH levels” value ([5]; daily oral 2MD) was “decreased PTH levels; also recorded: lower PTH levels”, the total serum calcium ([5]; dose levels of 2MD giving the positive effects) was “do not significantly raise serum calcium” and the “hypercalcemia and associated effects including weight loss, compared with 150 ng 1,25(OH)2D3” value ([6]; 1 ng 2MD) was “significantly less”. For the same compound, the “clinical symptoms of hypercalcemia” value ([6]; 5 ng 2MD) was “symptoms of hypercalcemia including unkempt fur and nervousness”, the “growth / weight loss” value ([6]; 5 ng 2MD) was “adversely affected; also recorded: Weight loss is most severe” and the growth ([6]; 0.5 and 1 ng 2MD) was “slight impact on growth; also recorded: very mild”. For the same compound, the lethargy or morbidity ([6]; any 2MD dose group (0.5, 1, 5 ng)) was “no lethargy or morbidity was observed”.
With `C=C1/C(=C\C=C2/CCC[C@]3(C)[C@@H]([C@H](C)CCCC(C)(C)O)CC[C@@H]23)C[C@@H](O)C[C@@H]1O` [1,25(OH)2D3, 1α,25-dihydroxyvitamin D3, reference compound] the prevention of proteinuria (MRL/MpJ-Fas^lpr/J mice [1]; 300 ng 1,25(OH)2D3 compared with 5 ng 2MD) was “equally effective”, the spleen mass reduction (MRL/MpJ-Fas^lpr/J mice [3]; 150 ng per day 1,25(OH)2D3) was “comparable to that achieved with 5 ng 2MD treatment” and the “spleen histology, compared with 5 ng 2MD” value (MRL/MpJ-Fas^lpr/J mice [3]; 300 ng 1,25(OH)2D3) was “better retention of normal spleen histology”. The “spleen mass normalized to body weight” value (MRL/MpJ-Fas^lpr/J mice [3]; 300 ng 1,25(OH)2D3) was “statistically significant reduction”, the “spleen mass, compared with 5 ng 2MD” value (MRL/MpJ-Fas^lpr/J mice [3]; 300 ng 1,25(OH)2D3) was “greater reduction in spleen mass” and the proteinuria (MRL/MpJ-Fas^lpr/J mice [7]) was “completely prevents proteinuria”.
